Measurements taken from patent US20240366555A1, “SELECTIVE MTORC2 INHIBITOR AND USES THEREOF” (ALIAD BIOPHARMA, priority 2021, published 2024).
pIC50: −log10 of the molar value. Like-named read-outs stand apart in the source and are kept apart here.

Tests used:
Pten KO mice = experiment: Macrocephaly alleviation (brain weight) in Pten KO mice; format: in vivo; design: average brain weight: unit not given here; conditions: for average brain weight: FIG. 5
Method: As Pten KO mice, Ptenf/f_cre/cre KO mice or Ptenf/f_cre/++ Het mice (KD) were obtained by mating Pten floxed/floxed mice and CAMKII-cre mice. DMSO or athyriol was intraperitoneally injected at 5 or 10 mg/kg for 2 weeks from the age of mice of 6 weeks, and a behavioral test was performed in 7 days after administration. Pten floxed/floxed mice were used as littermates of the same age as a normal control group.
When athyriol was administered into Pten KO mice, whether the weight of brain increased compared to a mouse without Pten knockout was reduced was confirmed. In other words, whether athyriol had efficacy of alleviating macrocephaly symptoms was confirmed through the following experiment.
Specifically, the body weight was measured after the aforementioned behavioral test of Experimental examples 1-2 to 1-6, and then animals were sacrificed. After removing the skull, the brain including forebrain, midbrain and hindbrain was extracted and the ratio of brain weight to body weight and the body weight were measured.

mTORC2 = mTORC2 (Homo sapiens, UniProt P42345); experiment: LocaTOR2 assay in A549 cells (FRB-AKT2 Ser473 phosphorylation); format: cell-based; design: endogenous in cells; host or cells: A549 (transfected only with the FKBP-recruiter and the FRB-AKT2 reporter); conditions: for pIC50: FIG. 9g
From the text: mTORC2 is located in the cell membrane, endosome, ER and mitochondrial membrane. mTORC2 forms an mTORC2 complex as an activated form of ras (ras-GTP) operates as a scaffold in the cell membrane, whereas it forms an mTORC2 complex as mLST8 operates as a scaffold in the endosome. By this difference, the mTORC2 inhibitory effect of norathyriol may be shown differently depending on the subcellular compartment where mTORC2 is located. In order to investigate the mTORC2 inhibitory effect of norathyriol depending on the subcellular compartment location, in vivo LocaTOR2 assay was performed (Ebner et al. (2017) J. Cell Biol. 216:343-353). After introducing FKBP-recruiter selectively located in the membrane of the subcellular compartment and FRB^T2098L-AKT2 which is an mTORC2 substrate, AP21967 was treated for 40 minutes to induce binding between the FKBP-recruiter and FRB-AKT2, and FRB-AKT2 was moved to a specific subcellular compartment. In addition, the degree of phosphorylation of Ser473 of FRB-Akt by mTORC2 located in the site thereof was investigated by immunoblot analysis.

mTORC2 signaling pathway = experiment: Immunoblot analysis of mTORC2 signaling pathway in A549 cells; format: cell-based, human
Method: In order to investigate the effect on the mTORC2 signaling pathway of norathyriol in a culture cell model, after treating norathyriol to a human cell line A549, Akt Ser473 phosphorylation, Akt Thr308 phosphorylation, and NDRG1 Thr346 phosphorylation were measured by immunoblot analysis over time. The A549 cells were cultured in RPMI culture medium in which 10% heat inactivated FBS and 1× GlutaMax were added. After seeding the A549 cells of 2×10^5 in a 60 mm culture dish and culturing them for 1 day, norathyriol was treated to the cells. The cells were washed with ice-cold 1× PBS twice, and then the cells were […] using RIPA buffer (50 mM Tris-HCl (pH7.4), 150 mM NaCl, 0.25% sodium deoxycholate, 1% NP-40, 1% SDS, 1 mM EDTA, 1 mM EGTA, 1 mM sodium β-glycerophosphate, 1 mM PMSF, 1 μg/ml leupeptin, 1 μg/ml pepstatin A, 10 nM aprotinin, 1 mM Na3VO4, 50 mM NaF, 10 nM calyculin A) on ice. After removing undissolved substances by centrifuging at 4° C. at 15,000× g for 15 minutes, the supernatant was recovered to determine the protein concentration with BCA protein assay kit (Thermo Fisher Scientific). 2× SDS-PAGE sample buffer in the same volume was added to the supernatant and boiled for 5 minutes, and then it was developed under a reducing condition by SDS-polyacrylamide gel electrophoresis. The developed protein was transferred into a PVDF membrane by an electro blotting method. The membrane was blocked in TBST containing 5% skim milk (100 mM Tris-Cl, pH 8.8, 150 mM NaCl, 0.1% Tween-20) at a room temperature for 1 hour, and then it was reacted with a primary antibody. After washing with TBST for 10 minutes 3 times, it was reacted with a secondary antibody conjugated with HRP. After washing with TBST for 10 minutes 3 times, it was reacted with an enhanced chemiluminescence (ECL) reagent to obtain an image of the protein combined with the secondary antibody. For the immunoblot analysis, AKT antibody (#4691, Cell Signaling), phospho-Ser473 AKT antibody (#4060, Cell Signaling), phospho-Thr308 AKT antibody (#2965, Cell Signaling), p70 S6 kinase antibody (#9202, Cell Signaling), and phospho-Thr389 p70 S6 kinase antibody (#9205, Cell Signaling) were used.
mTORC2 activates SGK1, and SGK1 phosphorylates NDRG1 Thr346. NDRG1 phosphorylated at Thr346 is removed by a ubiquitination-proteasome system. Accordingly, when the mTORC2 activity is inhibited, NDRG1 Thr346 phosphorylation is reduced, whereas NDRG1 protein increases.

Structure (SMILES)	brain weight corrected by body weight, increase compared to control group (Pten KO mice; 5 mg/kg)	average brain weight (Pten KO mice; 5 mg/kg for 14 days)	brain weight corrected by body weight, increase compared to control group (Pten KO mice; 10 mg/kg) [times]	average brain weight (Pten KO mice; 10 mg/kg for 14 days)	alleviation of macrocephaly symptoms (Pten KO mice; 5 or 10 mg/kg for 14 days) [%]	FRB-AKT2 Ser473 phosphorylation, mitochondria (mTORC2; A549, Bcl-XL-FKBP recruiter, FIG. 9e)	FRB-AKT2 Ser473 phosphorylation, mTORC2 located in cell membrane (mTORC2; A549, KRas4B^C30-FKBP recruiter, AP21967, norathyriol at 30 μM and 60 μM, FIG. 9a)	FRB-AKT2 Ser473 phosphorylation, mTORC2 located in early endosome (mTORC2; A549, Rab5-FKBP recruiter, FIG. 9b)	FRB-AKT2 Ser473 phosphorylation, mTORC2 located in late endosome (mTORC2; A549, Rab7-FKBP recruiter, FIG. 9c)	FRB-AKT2 Ser473 phosphorylation, mTORC2 located in recycling endosome (mTORC2; A549, Rab11-FKBP recruiter, FIG. 9d)	FRB-AKT2 Ser473 phosphorylation, ER (mTORC2; A549, TcRb-FKBP recruiter, FIG. 9f)	pIC50 (mTORC2; mTORC2 located in cell membrane (plasma membrane), read-out: IC50, mTORC2, PM)	pIC50 (mTORC2; mTORC2 located in early endosome, read-out: IC50, mTORC2, EE)	pIC50 (mTORC2; mTORC2 located in late endosome, read-out: IC50, mTORC2, LE)	pIC50 (mTORC2; mTORC2 located in recycling endosome, read-out: IC50, mTORC2, RE)	Akt Ser473 phosphorylation (mTORC2 activity indicator) (mTORC2 signaling pathway; FIG. 7a)	Akt Thr308 phosphorylation (PDK1 activity indicator) (mTORC2 signaling pathway; FIG. 7a)	NDRG1 protein (mTORC2 signaling pathway; FIG. 7b)	ratio of NDRG1 Thr346 phosphorylation to NDRG1 protein (mTORC2 signaling pathway; FIG. 7b)
COc1cc(O)c2c(=O)c3cc(O)c(O)cc3oc2c1 [athyriol, 1,6,7-Trihydroxy-3-methoxy-9H-xanthen-9-on]	about 1.3 times	517	~1.26	515	≥ 68														
O=c1c2cc(O)c(O)cc2oc2cc(O)cc(O)c12 [norathyriol, 1,3,6,7-tetrahydroxy-9H-xanthen-9-one]						reduced	not reduced	reduced at a significant level	reduced at a significant level	reduced at a significant level	reduced	< 4.22	> 4.52	> 4.52	4.40	reduced	not reduced and rather increased after 24 hours	increased significantly	reduced
